Laboratory results from US4719048A, “Crysene compound” (Burroughs Wellcome Co., priority 1984, dated 1988).
Counter-ions that a name gives are not always drawn.

Key:
LD20 in the P388/0 test = type: in vivo, mouse (CD2-F1); conditions: ip, days 1, 5 and 9
Description: (§1) CD2-F1 mice, of the same sex, weighing 20±3 g, are used for this test. Control and test animals are injected intraperitoneally with a suspension of ~10^6 viable P388/0 tumor cells on day 0. In each test, several dose levels which bracket the LD20 of the compound are evaluated; each dose level group contains six animals. The test compounds are prepared either in physiologic saline containing 0.05% Tween 80 or distilled water containing 5% dextrose and are administered intraperitoneally on days 1, 5, and 9 relative to tumor implant. Doses are on a mg/kg basis according to individual animals' body weights. The day of death for each animal is recorded, the median identified for each group and the ratios of median survival time for treated (T)/control (C) groups are calculated. The criterion for activity is T/C×100≥120%.
^A Values in parentheses are the highest nontoxic dose where the
LD20 was not determined.

[1] = tested on: P388/0 tumor cells (lymphocytic leukemia); assay: Lymphocytic Leukemia P388/0 Test (survival of tumor-bearing mice); type: in vivo, mouse (CD2-F1); conditions: ip, days 1, 5, 9; at optimal dose (mg/kg): 1B 121; 1C 115; 2 100; 3 100; 6G 65; 18B 88; 19H 110; 6H 60; 7 110; 9 300; 10B 1013; 11C 150; 12G 90; 5F 225; 13D 303; 14 196; 15B 250; 16 1012; 4B 180; active if ≥120%
Text: (§2) Methods for evaluating the antitumor activity of these compounds are essentially those used in the Tumor Panel by the Developmental Therapeutics Program, Division of Cancer Treatment, National Cancer Institute, A. Goldin, et al., Methods in Cancer Research, Vol. XVI, p. 165, Academic Press (1979). Some modifications, in dose level and schedule have been made to increase the testing efficiency.
as §1

B16 melanoma cells = assay: Melanotic Melanoma B16 test (survival); type: in vivo, mouse (B6C3-F1); conditions: B16 ip; drug ip days 1, 5, 9; dose (mg/kg): 1C 100; 6G 50; 3 70; 2 75; 18B 70; active if >125%
Text: as §2
B6C3-F1 mice of the same sex, weighing 20±3 g, are used for this test. A suspension of B16 cells is prepared from a non-necrotic portion of solid tumor tissue obtained from a passage mouse. One gram of tumor is homogenized in 9 mL ice-cold Earle's salts solution and filtered through 1000 mesh screen to remove debris. 0.5 mL of the resulting brei is injected intraperitoneally into each animal. Dosing is carried out as in the P388/0 and L1210 tests. Days of death are recorded for a 60 day period and T/C ratio calculated as in the P388/0 and L1210 tests. The criterion for activity is T/C×100>125%.

Colon 38 carcinoma = assay: Colon 38 Carcinoma Test (tumor weight); type: in vivo, mouse (tumor from C57B1/6); conditions: ip, days 1, 5, 9; dose 120 mg/kg; day 20; active if ≤42%
Text: as §2
This chemically-induced tumor arose in a C57B1/6 mouse and is maintained as a solid tumor in that mouse strain. The subcutaneously growing solid tumor is aseptically excised from passage mice and placed in sterile saline. The tumor is trimmed free of visible necrotic and connective tissue, then divided into 2-3 mm cubes. A cube is implanted subcutaneously in the ventral thoracic region with a sterile trochar on day 0. In each test several dose levels which bracket the LD20 for the compound are evaluated. Ten animals are included in each dose level group and thirty animals in the untreated control group. The test compounds are prepared either in physiologic saline containing 0.05% Tween 80 or distilled water containing 5% dextrose and are administered intraperitoneally on days 1, 5 and 9 after tumor implant. […] At day 20, the animals are sacrificed and the longest (L) and shortest (W) dimensions of each tumor measured with vernier calipers. Tumor weight is calculated from the formula [formula] […]

| Structure (SMILES) | LD20 (LD20 in the P388/0 test) | T/C × 100% (Excluding 30 Day Survivors), median survival time treated/control [1] | further results |
| --- | --- | --- | --- |
| CCC(CO)(CO)NCc1cc2c3ccccc3ccc2c2ccccc12.Cl [Example 3, 2-((6-chrysenylmethyl)amino)-2-ethyl-1,3-propanediol hydrochloride] | 100 mg/kg |  |  |
| CCc1cc2c3ccccc3c(CNC(C)(CO)CO)cc2c2ccccc12 [Example 15B, 2-(((12-ethyl-6-chrysenyl)methyl)amino)-2-methyl-1,3-propanediol methanesulfonate] | 150 mg/kg |  |  |
| C[C@@H](O)C(C)(NCc1cc2c3ccccc3ccc2c2ccccc12)[C@@H](C)O (relative stereo) [Example 5F] |  | +255% |  |
| CS(=O)(=O)O.C[C@H](O)[C@@](C)(CO)NCc1cc2c3ccccc3ccc2c2ccccc12 (relative stereo) [Example 6H, (+-)(2R*,3S*)-2-((6-chrysenylmethyl)amino)-2-methyl-1,3-butanediol methanesulfonate] | 60 mg/kg | +235% |  |
| COCC(C)(CO)NCc1cc2c3ccccc3ccc2c2ccccc12.Cl (stereo not drawn) [Example 9D, 3-methoxy-2-((6-chrysenylmethyl)amino)-2-methyl-1-propanol hydrochloride] |  | +181% |  |
| CC(C)C(CO)(CO)NCc1cc2c3ccccc3ccc2c2ccccc12 [Example 11C, 2-((6-chrysenylmethyl)amino)-2-isopropyl-1,3-propanediol hydrochloride.H2 O] | 150 mg/kg |  |  |
| Cl.OCC(CO)(CO)NCc1cc2c3ccccc3ccc2c2ccccc12 [Example 2, 2-((6-chrysenylmethyl)amino)-2-hydroxymethyl-1,3-propanediol hydrochloride] | 100 mg/kg |  |  |
| OCC(CO)NCc1cc2c3ccccc3ccc2c2ccccc12 [Example 14, 2-((6-chrysenylmethyl)amino)-1,3-propanediol methanesulfonate] | 160 mg/kg |  |  |
| CC(CO)(CCO)NCc1cc2c3ccccc3ccc2c2ccccc12 (stereo not drawn) [Example 12G, 2-((6-chrysenylmethyl)amino)-2-methyl-1,4-butanediol hydrochloride.1/3EtOH] | 90 mg/kg |  |  |
| CC(CO)(CO)NCc1cc2c3ccccc3c(Cl)cc2c2ccccc12 [Example 4B, 2-(((12-chloro-6-chrysenyl)methyl)amino)-2-methyl-1,3-propanediol methanesulfonate.1/3H2 O] | 180 mg/kg | +155% |  |
| CC(C)(CO)NCc1cc2c3ccccc3ccc2c2ccccc12.Cl [Example 18B, 2-((6-chrysenylmethyl)amino)-2-methyl-1-propanol hydrochloride] | 80 mg/kg |  |  |
| CS(=O)(=O)O.C[C@H](O)C(NCc1cc2c3ccccc3ccc2c2ccccc12)[C@@H](C)O (stereo partly drawn) [Example 13D, meso-3-((6-chrysenylmethyl)amino)-2,4-pentanediol methanesulfonate] |  | +200% |  |
| CC(=O)OCC(C)(COC(C)=O)NCc1cc2c3ccccc3ccc2c2ccccc12 [Example 16, 2-((6-chrysenylmethyl)amino)-2-methyl-1,3-propanediol diacetate] |  | +145% |  |
| CC(CO)(CO)NCc1ccc2ccc3c4ccccc4ccc3c2c1 [Example 19H, 2-((3-chrysenylmethyl)amino)-2-methyl-1,3-propanediol methanesulfonate] | 150 mg/kg |  |  |
| C[C@H](O)[C@@](C)(CO)NCc1cc2c3ccccc3ccc2c2ccccc12 (relative stereo) [Example 6G, (+-)(2R*,3S*)-2-((6-chrysenylmethyl)amino)-2-methyl-1,3-butanediol hydrochloride.1/3H2 O] | 53 mg/kg | +245% | T/C × 100% Excluding 60 day Survivors (B16 melanoma cells): +160% |
| CC(CO)(CO)NCc1cc2c3ccccc3ccc2c2ccccc12 [Example 1C, 2-((6-chrysenylmethyl)amino)-2-methyl-1,3-propanediol methanesulfonate] |  |  | T/C × 100% (tumor weight) (Colon 38 carcinoma): 36% |
| C[C@@H](O)[C@@](C)(CO)NCc1cc2c3ccccc3ccc2c2ccccc12.Cl (relative stereo) [Example 7, (+-)-(2R*,3R*)-2-((6-chrysenylmethyl)amino)-2-methyl-1,3-butanediol hydrochloride] | 100 mg/kg | +285% |  |
| O[C@@H]1CCC[C@H](O)[C@H]1NCc1cc2c3ccccc3ccc2c2ccccc12 [Example 10B, (1α,2β,3α)-2-((6-chrysenylmethyl)amino)-1,3-cyclohexanediol hydrochloride] |  | +205% |  |
| CC(CO)(CO)NCc1cc2c3ccccc3ccc2c2ccccc12.Cl [Example 1B, 2-((6-chrysenylmethyl)amino)-2-methyl-1,3-propanediol hydrochloride] | 140 mg/kg |  |  |
